Measurements taken from patent publication US20130096119A1, “Isoquinolin-3-Ylurea Derivatives” (priority 2010, published 2013).
≈ marks a conversion by molar mass, not a printed value.

Test system: S. pneumoniae ATCC 49619
Assay: Minimal inhibitory concentration (MIC) by microdilution method (CLSI M7-A7)
Type: cell-based, Streptococcus pneumoniae
Details: Streptococcus pneumoniae, ATCC49619, cation-adjusted Mueller-Hinton Broth supplemented with 3% (v/v) lysed horse blood
Description: Minimal inhibitory concentrations (MICs; mg/l) were determined in cation-adjusted Mueller-Hinton Broth (supplemented with 3% (v/v) lysed horse blood for testing Streptococcus pneumoniae) by a microdilution method following the description given in “Methods for Dilution Antimicrobial Susceptibility Tests for Bacteria that Grow Aerobically”, Approved standard, 7th ed., Clinical and Laboratory Standards Institute (CLSI) Document M7-A7, Wayne, Pa., USA, 2006.

Row | Compound | MIC
1 | CCNC(=O)Nc1cc2cc(NCc3ccnc(N4CCOCC4)c3)cc(C)c2cn1 [Example 185, 1-ethyl-3-{8-methyl-6-[(2-morpholin-4-yl-pyridin-4-ylmethyl)-amino]-isoquinolin-3-yl}-urea] | 4 µg/mL (≈ 9.51 µM)
2 | CCNC(=O)Nc1cc2cccc(Nc3cccnc3OC)c2cn1.Cl [Example 291, 1-ethyl-3-[8-(2-methoxy-pyridin-3-ylamino)-isoquinolin-3-yl]-urea hydrochloride] | 4 µg/mL
3 | CCNC(=O)Nc1cc2cc(-c3ccccc3C(=O)N(C)C)cc(C)c2cn1 [Example 23, 2-[3-(3-ethyl-ureido)-8-methyl-isoquinolin-6-yl]-N,N-dimethyl-benzamide] | 8 µg/mL (≈ 21.3 µM)
4 | CCNC(=O)Nc1cc2cccc(Nc3ccncc3)c2cn1 [Example 153, 1-ethyl-3-[8-(pyridin-4-ylamino)-isoquinolin-3-yl]-urea] | 8 µg/mL (≈ 26 µM)
5 | CCNC(=O)Nc1cc2c(-c3ccc(CO)cc3)ccc(Nc3cccc(C(=O)N(C)C)c3)c2cn1 [Example 251, 3-[3-(3-ethyl-ureido)-5-(4-hydroxymethyl-phenyl)-isoquinolin-8-ylamino]-N,N-dimethyl-benzamide] | 1 µg/mL (≈ 2.07 µM)
6 | CCNC(=O)Nc1cc2cc(-c3cncc4ccccc34)cc(C)c2cn1 [Example 91, 1-ethyl-3-(8′-methyl-[4,6′]biisoquinolinyl-3′-yl)-urea] | 2 µg/mL (≈ 5.61 µM)
7 | CCNC(=O)Nc1cc2cc(-c3ccc(C(N)=O)cc3)cc(C)c2cn1 [Example 30, 4-[3-(3-ethyl-ureido)-8-methyl-isoquinolin-6-yl]-benzamide] | 1 µg/mL (≈ 2.87 µM)
8 | CCNC(=O)Nc1cc2cccc(Nc3ccc(C(N)=O)cn3)c2cn1.Cl [Example 156, 6-[3-(3-ethyl-ureido)-isoquinolin-8-ylamino]-nicotinamide hydrochloride] | 2 µg/mL
9 | CCNC(=O)Nc1cc2cccc(Nc3ccc(C)cn3)c2cn1.Cl [Example 163, 1-ethyl-3-[8-(5-methyl-pyridin-2-ylamino)-isoquinolin-3-yl]-urea hydrochloride] | 2 µg/mL
10 | CCNC(=O)Nc1cc2c(CN3CCN(C)CC3)ccc(Nc3cccc(OC)n3)c2cn1 [Example 276, 1-ethyl-3-[8-(6-methoxy-pyridin-2-ylamino)-5-(4-methyl-piperazin-1-ylmethyl)-isoquinolin-3-yl]-urea] | 4 µg/mL (≈ 8.9 µM)
11 | CCNC(=O)Nc1cc2cc(NCc3cccc(-n4cncn4)c3)cc(C)c2cn1 [Example 187, 1-ethyl-3-[8-methyl-6-(3-[1,2,4]-triazol-1-yl-benzylamino)-isoquinolin-3-yl]-urea] | 8 µg/mL (≈ 19.9 µM)
12 | CCNC(=O)Nc1cc2cc(-c3cccc4[nH]ccc34)cc(C)c2cn1 [Example 90, 1-ethyl-3-[6-(1H-indol-4-yl)-8-methyl-isoquinolin-3-yl]-urea] | 2 µg/mL (≈ 5.81 µM)
13 | CCNC(=O)Nc1cc2cccc(COc3ccccc3C(=O)OC)c2cn1.Cl [Example 258, 2-[3-(3-ethyl-ureido)-isoquinolin-8-ylmethoxy]-benzoic acid methyl ester hydrochloride] | 8 µg/mL
14 | CCNC(=O)Nc1cc2c(-c3ccc(NC(=O)OC)cc3)ccc(C)c2cn1 [Example 65, {4-[3-(3-ethyl-ureido)-8-methyl-isoquinolin-5-yl]-phenyl}-carbamic acid methyl ester] | 2 µg/mL (≈ 5.28 µM)
15 | CCNC(=O)Nc1cc2c(-c3ccncc3)ccc(OC)c2cn1 [Example 125, 1-ethyl-3-(8-methoxy-5-pyridin-4-yl-isoquinolin-3-yl)-urea] | 4 µg/mL (≈ 12.4 µM)
16 | CCNC(=O)Nc1cc2c(-c3ccncc3)ccc(Nc3cccnc3)c2cn1 [Example 227, 1-ethyl-3-[5-pyridin-4-yl-8-(pyridin-3-ylamino)-isoquinolin-3-yl]-urea] | 0.125 µg/mL (≈ 0.325 µM)
17 | CCNC(=O)Nc1cc2cc(-c3ccc(S(C)(=O)=O)cc3)cc(C)c2cn1 [Example 94, 1-ethyl-3-[6-(4-methanesulfonyl-phenyl)-8-methyl-isoquinolin-3-yl]-urea] | 0.25 µg/mL (≈ 0.652 µM)
18 | Cc1ccc(-c2ccncc2)c2cc(NC(=O)NC3CC3)ncc12 [Example 139, 1-cyclopropyl-3-(8-methyl-5-pyridin-4-yl-isoquinolin-3-yl)-urea] | 4 µg/mL (≈ 12.6 µM)
